In US4628095A, “Substituted N-benzyl-4-(benzhydryl) piperidines” (G. D. Searle & Co., priority 1985, dated 1986):

Legend:
[1] = system: vascular smooth muscle (isolated thoracic aorta segments); experiment: Calcium antagonism in vascular smooth muscle, isolated thoracic aorta segments from male spontaneously hypertensive rat (pA2); assay type: cell-based; settings: for active in the foregoing test (vascular calcium antagonism): reference drugs; for pA2 (Ca++ antagonism): test compound 1×10^-6 M, one hour incubation, K+ (100 mM) depolarized, considered active if pA2 is 6.0 or greater
Experimental: Isolated thoracic aorta segments from the male spontaneously hypertensive rat were utilized in this test procedure.
The excised aorta segment was mounted in a tissue bath containing modified Krebs solution. After depolarization of the tissue with potassium (100 mM), calcium, in cumulative concentrations of 1×10^-3 M, 3.2×10^-3 M, and 1×10^-2 M was injected into the bath to produce vascular smooth muscle contraction. The developed tension (in grams) is measured and control dose-response values obtained. After one hour of incubation with a test compound at 1×10^-6 M concentration, the same doses of calcium ions were repeated. The log dose-response curves of the control and after treatment were analyzed by linear regression. The pA2 value was calculated as a measure of calcium antagonism of the test compound. See Van Rossum, J. M., Arch. Int. Pharmacodyn, 143, 299-330, 1963.
Calcium ions play an essential role in induction and maintenance of vascular smooth muscle contractility. In potassium depolarized vascular smooth muscle, calcium antagonists may block the entry of calcium ions into the cell or act by other mechanisms to inhibit the contractions induced by calcium ions. The inhibition of calcium ion-induced contraction of vascular smooth muscle is used to test compounds for vascular calcium antagonism. Cardiovascular diseases such as arrythmias, angina-pectoris, hypertension, and peripheral vascular disease may be causally related to abnormalities in cellular handling of calcium ions.

[2] = system: spontaneously hypertensive rat (SHR); experiment: Anti-hypertensive activity, unanesthetized spontaneously hypertensive rat (SHR) assay, mean arterial blood pressure; assay type: in vivo
Experimental: Male, unanesthetized spontaneously hypertensive rats, 11 to 16 weeks old were used in this test procedure. The compounds to be tested are administered intragastrically at a dose of 50 mg/kg or intraarterially/intraveneously at a dose of 10 mg/kg. or such other doses determined to be suitable for a specific test compound.
Initial mean arterial blood pressure was measured directly via a previously implanted arterial catheter immediately before administration of the test compound. Blood pressure readings were made at 1, 2, 3, and 4 hours following administration of the test compound. […] Statistical comparisons were made using the paired Student's T test with two sided probability calculations.

[3] = reference drugs, dose not given

COC(=O)C1=C(C)NC(C)=C(C(=O)OC)C1c1ccccc1[N+](=O)[O-] [nifedipine, reference compound]
active in the foregoing test (vascular calcium antagonism) [1]: active

CN(C)c1ccc(CN2CCC(C(c3ccccc3)c3ccccc3)CC2)c(C(=O)NC(C)(C)C)c1 [Example 6, 5-(dimethylamino)-N-(1,1-dimethylethyl)-2-[[4-(diphenylmethyl)-1-piperidinyl]methyl]benzamide]
SHR activity (in words) ([2]; dose not given, active if mean post treatment blood pressure differs from control, p <= 0.05): inactive
pA2 (Ca++ antagonism) ([1]; 60 min, 1 µM): 7.20

COc1ccc([C@@H]2Sc3ccccc3N(CCN(C)C)C(=O)[C@@H]2OC(C)=O)cc1 [diltiazem, reference compound]
active in the foregoing test (vascular calcium antagonism) [1]: active

Clc1cccc(Cl)c1N=C1NCCN1 [Clonidine, reference compound]
active in the foregoing hypertensive rat assay ([2]; rat, in vivo): active

CN(C)c1ccc(CN2CCC(C(c3ccc(F)cc3)c3ccc(F)cc3)CC2)c(C(=O)NC(C)(C)C)c1 [Example 3, 2-[[4-[bis(4-fluorophenyl)methyl]-1-piperidinyl]methyl]-5-(dimethylamino)-N-(1,1-dimethylethyl)benzamide]
SHR -mm Hg (dose), blood pressure change ([2]; 50 mpk-oral): -54 mm Hg
pA2 (Ca++ antagonism) [1]: inactive

COc1ccc(CCN(C)CCCC(C#N)(c2ccc(OC)c(OC)c2)C(C)C)cc1OC (centres unmarked) [Verapamil, reference compound]
active in the foregoing test (vascular calcium antagonism) [1]: active

COC(=O)c1cc(N(C)C)ccc1CN1CCC(C(c2ccc(F)cc2)c2ccc(F)cc2)CC1 [Example 4, methyl 2-[[4-[bis(4-fluorophenyl)methyl]-1-piperidinyl]methyl]-5-(dimethylamino)benzoate]
SHR -mm Hg (dose), blood pressure change ([2]; 50 mpk-oral): -67 mm Hg
pA2 (Ca++ antagonism) ([1]; 60 min, 1 µM): 7.78

CN(C)c1ccc(C[N+]2([O-])CCC(C(c3ccccc3)c3ccccc3)CC2)cc1 (centres unmarked) [Example 9]
SHR -mm Hg (dose), blood pressure change ([2]; 50 mpk-oral): -48 mm Hg
pA2 (Ca++ antagonism) [1]: inactive

NNc1nncc2ccccc12 [Apresoline, reference compound]
active in the foregoing hypertensive rat assay ([2]; rat, in vivo): active

COC(=O)c1cc(N(C)C)ccc1CN1CCC(C(c2ccccc2)c2ccccc2)CC1 [Example 11, methyl 5-(dimethylamino)-2-[[4-(diphenylmethyl)-1-piperidinyl]methyl]benzoate]
SHR -mm Hg (dose), blood pressure change ([2]; 50 mpk-oral): -34 mm Hg
pA2 (Ca++ antagonism) ([1]; 60 min, 1 µM): 7.65

COC(=O)c1cc(OC)ccc1CN1CCC(C(c2ccccc2)c2ccccc2)CC1 [Example 8, methyl 2-[[4-(diphenylmethyl)-1-piperidinyl]methyl]-5-methoxybenzoate]
SHR -mm Hg (dose), blood pressure change ([2]; 3-10 mpk-i.v.): -40 mm Hg

C[C@](N)(Cc1ccc(O)c(O)c1)C(=O)O [Aldomet, reference compound]
active in the foregoing hypertensive rat assay [2, 3]: active

C[C@H](CS)C(=O)N1CCC[C@H]1C(=O)O [Captopril, reference compound]
active in the foregoing hypertensive rat assay [2, 3]: active

CNC(=O)c1cc(N(C)C)ccc1CN1CCC(C(c2ccccc2)c2ccccc2)CC1 [Example 5, 5-(dimethylamino)-2-[[4-(diphenylmethyl)-1-piperidinyl]methyl]-N-methylbenzamide]
SHR -mm Hg (dose), blood pressure change ([2]; 10 mpk-i.v.): -56 mm Hg
pA2 (Ca++ antagonism) ([1]; 60 min, 1 µM): 7.25
